Laboratory results taken from US20140228303A1, “NOVEL SGLT INHIBITORS” (Panacea Biotec Ltd, priority 2011, published 2014).

Legend:
mouse SGLT-2 = target: T1, mouse SGLT-2 (Mus musculus, UniProt Q923I7); test: Methyl-α-D-[U-14C]Glucopyranoside uptake assay for SGLT-2 in CHO-K1 cells expressing mSGLT-2; format: cell-based; conditions: N.E. = Not Effective
T1 construct: Full-length mouse SGLT-2 cDNA was amplified from C57BL/6J mouse kidneys and introduced in the pcDNA3.1(+) expression vector; expressed in transfected cells
T1 sequence (Q923I7 1-670): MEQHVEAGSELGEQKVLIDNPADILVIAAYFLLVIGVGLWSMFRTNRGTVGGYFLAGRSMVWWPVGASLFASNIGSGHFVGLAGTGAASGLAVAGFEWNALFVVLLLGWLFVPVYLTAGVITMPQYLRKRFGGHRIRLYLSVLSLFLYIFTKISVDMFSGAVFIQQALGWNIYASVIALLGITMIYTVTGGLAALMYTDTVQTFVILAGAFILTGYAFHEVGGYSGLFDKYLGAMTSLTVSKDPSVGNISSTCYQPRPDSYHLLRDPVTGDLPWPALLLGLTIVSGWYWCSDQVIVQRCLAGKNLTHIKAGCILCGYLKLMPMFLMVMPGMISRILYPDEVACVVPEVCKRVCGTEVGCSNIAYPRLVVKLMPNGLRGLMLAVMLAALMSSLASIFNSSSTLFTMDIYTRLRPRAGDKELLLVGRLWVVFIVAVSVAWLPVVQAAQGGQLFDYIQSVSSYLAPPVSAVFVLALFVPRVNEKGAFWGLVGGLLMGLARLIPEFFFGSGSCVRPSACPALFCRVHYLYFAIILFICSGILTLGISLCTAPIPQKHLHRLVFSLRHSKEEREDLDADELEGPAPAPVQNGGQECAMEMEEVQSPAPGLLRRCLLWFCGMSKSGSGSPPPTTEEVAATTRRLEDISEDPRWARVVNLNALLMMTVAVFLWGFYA
Method: Preparation of Mouse SGLT-2 Expressing Cells
Full-length mouse SGLT-2 cDNA was amplified from C57BL/6J mouse kidneys and introduced in the pcDNA3.1(+) expression vector (Invitrogen, Inc.) and propagated in Escherichia coli strain DH5α using Luria-Bertani (LB) medium containing ampicillin. […] Stably transfected cells were selected using G418 antibiotic selection pressure.
Methyl-α-D-[U-^14C]Glucopyranoside Uptake Assay for SGLT-2
(§1) Cells expressing mSGLT-2 were seeded on 96-well tissue culture plates (Greiner, Inc.) in RPMI containing 10% FBS and 400 μg/mL G418 (0.8×10^5 cells per well in 200 μL medium) and incubated at 37° C. under 5% carbon dioxide for 24 h prior to the assay. Cells were washed twice with 200 μL of either sodium buffer (140 mM NaCl, 4.7 mM KCl, 2.2 mM CaCl2, 1.2 mM MgCl2, 10 mM Tris/Hepes, pH 7.4) or sodium-free buffer (137 mM N-methyl-glucamine, 4.7 mM KCl, 2.2 mM CaCl2, 1.2 mM MgCl2, 10 mM Tris/Hepes, pH 7.4). Reaction mixture containing test compounds at different concentrations diluted in assay buffer, 0.1 mM unlabeled Methyl-α-D-glucopyranoside and 1 μCi/well methyl-α-D[U-^14C]glucopyranoside (American Radiochemicals) was added per well of a 96-well plate and incubated at 37° C. for 1 h. Cells were washed thrice with 200 μL of wash buffer (140 mM NaCl, 4.7 mM KCl, 2.2 mM CaCl2, 1.2 mM MgCl2, 10 mM Tris/Hepes, pH 7.4 containing 500 μM phlorizin) and lysed using 50 μL of 0.25N NaOH. Methyl-α-D[U-^14C]glucopyranoside uptake was quantitated using a Top count scintillation counter (PerkinElmer, Inc.). All the test compounds were assayed in triplicates.

human SGLT-1 = target: T2, human SGLT-1 (Homo sapiens, UniProt P13866); test: Methyl-α-D-[U-14C]Glucopyranoside uptake assay for SGLT-1 in CHO-K1 cells expressing hSGLT-1; format: cell-based; conditions: N.E. = Not Effective
T2 construct: Full-length human SGLT-1 cDNA in the pCMV-XL-Neo expression vector was obtained from Origene Corporation
T2 sequence (P13866 1-664): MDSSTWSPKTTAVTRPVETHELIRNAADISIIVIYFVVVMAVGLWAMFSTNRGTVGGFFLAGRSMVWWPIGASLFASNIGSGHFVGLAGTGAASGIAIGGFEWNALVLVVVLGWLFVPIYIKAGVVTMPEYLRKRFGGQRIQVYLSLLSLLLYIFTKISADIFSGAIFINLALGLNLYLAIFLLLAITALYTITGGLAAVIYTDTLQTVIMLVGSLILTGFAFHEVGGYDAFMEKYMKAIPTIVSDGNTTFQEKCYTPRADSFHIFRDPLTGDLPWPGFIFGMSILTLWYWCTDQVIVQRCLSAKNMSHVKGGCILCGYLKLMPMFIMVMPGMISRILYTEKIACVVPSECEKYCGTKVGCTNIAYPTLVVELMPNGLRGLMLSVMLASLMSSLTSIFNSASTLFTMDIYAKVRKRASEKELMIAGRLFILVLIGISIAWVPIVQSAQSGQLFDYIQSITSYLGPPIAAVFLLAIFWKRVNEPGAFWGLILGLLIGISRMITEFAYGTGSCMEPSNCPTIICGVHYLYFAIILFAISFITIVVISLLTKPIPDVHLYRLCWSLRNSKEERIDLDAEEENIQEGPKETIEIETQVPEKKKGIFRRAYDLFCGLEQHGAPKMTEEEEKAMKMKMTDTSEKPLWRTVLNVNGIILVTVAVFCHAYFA
Method: Preparation of Human SGLT-1 Expressing Cells
Full-length human SGLT-1 cDNA in the pCMV-XL-Neo expression vector was obtained from Origene Corporation and propagated in Escherichia coli strain DH5α using Luria-Bertani (LB) medium containing ampicillin. […] Stably transfected cells were selected using G418 antibiotic selection pressure.
Methyl-α-D-[U-^14C]Glucopyranoside Uptake Assay for SGLT-1
as §1, with “hSGLT-1” for “mSGLT-2”, “800 μg/ml” for “400 μg/mL”, “compounds” for “compounds at different concentrations”, “1” for “0.1”, “methyl-α-D-[U-^14C]glucopyranoside” for “methyl-α-D[U-^14C]glucopyranoside”, “Methyl-α-D-[U-^14C]glucopyranoside” for “Methyl-α-D[U-^14C]glucopyranoside”

C57BL/6J mice = test: Estimation of urinary glucose in C57BL/6J mice; format: in vivo, mouse; conditions: urine collected over 24 h
Method: Estimation of Urinary Glucose in C57BL/6J Mice
C57BL/6J mice were fasted 4 h before drug treatment. Fasted mice were weighed and randomized into different groups based on their body weight (n=6). At time T0 test compounds and standard compounds suspended in 0.25% CMC or PEG 400 formulation, were administered to respective groups and kept in metabolic cages (6 mice/cage) after dosing. Animals were fed after drug administration and urine was collected over a period of 24 h. Urinary volume was measured and urinary glucose was estimated using Merckotest Glucose Reagent (Merck Specialities Pvt. Ltd., India).

Rats = test: Estimation of urinary glucose in rat; format: in vivo; conditions: urine collected over 24 hrs
Method: Estimation of Urinary Glucose in Rat
Rats were fasted overnight (14 hrs) before drug treatment. Fasted rats were weighed and randomized into different groups based on their body weight (n=4). At time To test compounds and standard compound suspended in 0.25% C.M.C. or PEG 400 formulation were administered to respective groups and kept the animals in metabolic cages (1 rat/cage) after dosing. Animals were fed after drug administration and urine was collected over a period of 24 hrs. Urine volume was measured and urinary glucose was estimated using Merckotest Glucose Reagent (Merck Specialities Pvt. Ltd., India).

| Molecule | % inhibition of Methyl-α-D-[U-14C] Glucopyranoside uptake (CHO-K1 cells) mediated by SGLT-2 (mouse SGLT-2; 0.1 nM compound) | % inhibition of Methyl-α-D-[U-14C] Glucopyranoside uptake (CHO-K1 cells) mediated by SGLT-2 (mouse SGLT-2; 1 nM compound) | % inhibition of Methyl-α-D-[U-14C] Glucopyranoside uptake (CHO-K1 cells) mediated by SGLT-2 (mouse SGLT-2; 10 nM compound) | % inhibition of Methyl-α-D-[U-14C] Glucopyranoside uptake (CHO-K1 cells) mediated by SGLT-2 (mouse SGLT-2; 100 nM compound) | % inhibition of Methyl-α-D-[U-14C] Glucopyranoside uptake (CHO-K1 cells) mediated by SGLT-1 (human SGLT-1; 100 nM compound) | % inhibition of Methyl-α-D-[U-14C] Glucopyranoside uptake (CHO-K1 cells) mediated by SGLT-1 (human SGLT-1; 1 μM compound) | % inhibition of Methyl-α-D-[U-14C] Glucopyranoside uptake (CHO-K1 cells) mediated by SGLT-1 (human SGLT-1; 10 μM compound) | UGE in mice (in mg/g of feed consumed) at 3 mpk (C57BL/6J mice) | UGE in rat (in mg/g of feed consumed) at 3 mpk (Rats) |
| --- | --- | --- | --- | --- | --- | --- | --- | --- | --- |
| 1-(4-(2-chloro-5-((1S,2S,3S,4R,5S)-2,3,4-trihydroxy-1-(hydroxymethyl)-6,8-dioxabicyclo[3.2.1]octan-5-yl)benzyl)phenyl)ethanone O-ethyl oxime [Compound 8] | N.E. | 25.35% | 72.44% | 90.93% | 20.63% | 55.66% | 88.57% | 60.6 mg/g of feed consumed |  |
| 1-(4-(2-chloro-5-((1S,2S,3S,4R,5S)-2,3,4-trihydroxy-1-(hydroxymethyl)-6,8-dioxabicyclo[3.2.1]octan-5-yl)benzyl)phenyl)ethanone O-methyl oxime [Compound 4] |  |  |  |  |  |  |  | 76.2 mg/g of feed consumed |  |
| 1-(4-(2-chloro-5-((1S,2S,3S,4R,5S)-2,3,4-trihydroxy-1-(hydroxymethyl)-6,8-dioxabicyclo[3.2.1]octan-5-yl)benzyl)phenyl)propan-1-one O-methyl oxime [Compound 3] | 26.42% | 26.10% | 59.52% | 93.34% | N.E. | N.E. | 63.64% | 81.9 mg/g of feed consumed | 67.4 mg/g of feed consumed |
| 1-(4-(2-chloro-5-((2S,3R,4R,5S,6R)-3,4,5-trihydroxy-6-(hydroxymethyl)tetrahydro-2H-pyran-2-yl)benzyl)phenyl)-propan-1-one O-methyl oxime [Compound 7] | 44.36% | 48.64% | 42.26% | 74.40% | N.E. | N.E. | 56.97% | 78.4 mg/g of feed consumed |  |
| 1-(4-(2-chloro-5-((2S,3R,4R,5S,6R)-3,4,5-trihydroxy-6-(hydroxymethyl)tetrahydro-2H-pyran-2-yl)benzyl)phenyl)ethanone O-ethyl oxime [Compound 6] | 44.05% | 45.09% | 62.06% | 89.78% | N.E. | 22.68% | 60.02% | 78.1 mg/g of feed consumed |  |
| 1-(4-(2-chloro-5-((2S,3R,4R,5S,6S)-3,4,5-trihydroxy-6-methoxy tetrahydro-2H-pyran-2-yl)benzyl)phenyl)ethanone O-ethyl oxime [Compound 5] | 23.91% | 45.81% | 50.06% | 91.98% | N.E. | N.E. | 49.74% | 81.7 mg/g of feed consumed |  |
| CCON=C(CC)c1ccc(Cc2cc([C@@H]3O[C@H](CO)[C@@H](O)[C@H](O)[C@H]3O)ccc2Cl)cc1 [Compound 17] |  |  |  |  |  |  |  | 64.5 mg/g of feed consumed |  |
